pIC50: −log10 of the molar value. Read-outs that look alike come from different tables or passages of the source.
Columns and labels:
enkephalinase = experiment: Dosage of enkephalinasic (enkephalin dipeptidylcarboxypeptidasic) activity, effect of the inhibitors (striatal membrane fraction); type: biochemical, rat or mouse; details: 10 nM leucine-enkephalin ^3H, 0.1 mM puromycine, pH 7.4, 25° C, 15 min; read-out: 50% inhibitory concentration
Protocol: (I) Dosage of the "enkephalinasic" activity (enkephalin dipeptidylcarboxypeptidasic) and determination of the effect of the inhibitors
The enzyme preparation employed is a membrane fraction from the striatum of the rat or mouse.
This fraction is obtained by homogenization at 4° C. in 20 volumes of Tris-Hl buffer 0.05M (pH 7.4) followed by two successive centrifugations (1000 g×min. and 200,000 g×min.) at the end of which the sediment of the second centrifugation is retained. It is washed by resuspension in 10 ml of the buffer followed by centrifugation (200,000 g×min.) and the resulting sediment is in turn washed superficially to complete the removal soluble enzymes. The resulting membrane fraction is taken up into the buffer at 4° C. to obtain a suspension comprising about 1.5 mg of proteins per ml.
An aliquot sample (50 μl) of the membrane suspension is then incubated in a final volume of 100 μl at 25° C. in the presence of 10 nM leucine-enkephalin ^3 H (39 Ci/mmole), previously purified by column chromatography over Porapak Q(100-120 mesh, Waters Assoc.) and 0.1 mM puromycine, an aminopeptidase inhibitor. The incubation time is generally set at 15 min. so as to determine the initial rate of formation of tripeptide Tyr-Gly-Gly-^3 H caracteristic of the enkephalin dipeptidylcarboxypeptidasic (enkephalinasic) activity. The reaction is terminated by the addition of 25 μl of 0.2N HCl and the tripeptide is isolated by column chromatography over Polopak Q or on a thin layer of silica, according to the methods described by Malfroy et al (B. Malfroy, J. P. Swerts, C. Llorens and J. C. Schwartz, Neuro-Science Letters, 11, 329, 1979).
The results obtained with either method have always been consistent.
Determination of the radioactivity of the tripeptide is effected by liquid scintillation spectrometry.
The effect of the inhibitors is established by experiments with increasing concentrations of such materials, which leads to the determination of the 50% inhibitory concentrations calculated by means of data according to the method of Parker and Waud (J. Pharmacol. Exper. Ther. 177, 1, 1971). In some cases, the competitive nature of the inhibition was established by incubation experiments with a fixed concentration of the inhibitor and increasing concentrations of the substrate.

[1] = test system: licking reflex of mice on a plate heated at 55° C; experiment: Hot plate test: potentiation of the antalgic effect of D Ala2 Met Enkephalin; type: in vivo; details: for antagonism of the potentiating effect by Naloxone / potentiation of the effect of a subactive dosage (0.3γ) of D Ala2 Met Enkephalin: 30γ, in words; for potentiation of the effect of a subactive dosage (0.3γ) of D Ala2 Met Enkephalin: p<0.05; for increase in the licking time with respect to animals treated with DAla2 Met Enkephalin (0.3γ intraventricular): 30 mg/kg intravenous
Protocol: (§1) Licking reflex of mice on a plate heated at 55° C. according to the method of Jacob et co-workers (Arch. Int. Pharmacodyn. 122, 287-300, 1959: 133, 296-300, 1961).
(a) Potentiation of the antalgic effect of DAla2 Met Enkephalin:
(α) By the intraventricular route (ivt):
(β) By the intravenous route:
When administered by the intravenous route, the derivatives No. 2, 30 and 63 at the dose of 30 mg/kg produce a 100% increase in the licking time with respect to animals treated with DAla2 Met Enkephalin (0.3γ intraventricular).

[2] = test system: (Met^5) enkephalin liberated by depolarisation of striatum sections; experiment: Protection of endogenic enkephalins liberated by depolarisation of striatum sections; type: cell-based, rat; details: for (Met^5) liberated enkephalin: 50 mM KCl, no inhibitor: 120 ± 25
Protocol: (II) Protection of the endogenic […] liberated by depolarisation of the brain sections
Stratium sections of the rat are incubated in a medium of Krebs-Ringer and the (Met^5) enkephalin liberated by addition of 50 mM KCl is evaluated by radioimmunologic dosage (Patey and Coll., Science, 1981, 212, 1153-1155).
The higher protection of the liberated enkephalins afforded by these compounds is thence attributed to the inhibition of peptidases (probably aminopeptidases) other than those which are sensitive to thiorphan.

[3] = test system: phenylbenzoquinone-induced pain; experiment: Phenylbenzoquinone or "writhing" test; type: in vivo, mouse; details: for protection from phenylbenzoquinone-induced pain: p<0.01 versus controls
Description: (3) Phenylbenzoquinone or "writhing" test according to the method of Siegmund and co-workers (Proc. Soc. Expert Biol. Med. 1957, 95, 729-731).
Here again, if the antinociceptive effects of these compounds are compared with those of Thiorphan, a selective enkephalinase-inhibitor, a distinctly greater maximum effect is observed. […] This more pronounced analgesic effect is attributable to an improved protection of the endogenic opioid peptides, in relation with the inhibition not only of the enkephalinase, but also of the aminopeptidases involved in their hydrolysis.

[4] = test system: withdrawal of the tail of mice; experiment: Withdrawal of the tail immersed in water heated to 48° C; type: in vivo
Protocol: (2) Test in mice of the withdrawal of the tail immersed in water heated to 48° C. according to the method of Sewell and Spencer (Neuropharmacology, 1976, 15, p. 683-688).

[5] = test system: licking reflex of mice on a plate heated at 55° C; experiment: Hot plate test: specific antalgic effect; type: in vivo; details: for antalgic effect in the hot plate test: 55° C, intravenous, in words; for ED50: hot plate 55° C, i.v.
Protocol: as §1
(b) Specific antalgic effect
By the intravenous route.

mice = experiment: Subacute toxicity, intraperitoneal, three weeks
Protocol: The derivative 63 was administered by the intraperitoneal route for three weeks to mice at the dose of 50 mg/kg three times a day (150 mg/kg/day).

immobile periods of mice = details: 1 mg/kg i.v.; p<0.001; in words
Description: Forced swimming or "Mice Despair" test according to Porsolt's method.
This test is representative of an antidepressive effect.

blood pressure = details: 10 mg/kg intravenous; in words
Description: (VI) Hypotensive Activity
Specific enkephalin-potentiating activity, (Laubie M. Schmith H., Vincent M., Remon D. Central cardiovascular effects of Morphinometic peptides in dogs. European Journal of Pharmacology, vol. 46, 67-71, 1977).

[6] = 30 γ/mouse ivt, D Ala2 Met Enkephalin 0.3 γ/mouse
[7] = 30 mg/kg intravenous, DAla2 Met Enkephalin 10 to 30γ/mouse ivt 15 minutes later

Q: With “N-[2-(N-hydroxy carbamoyl) 3-phenyl propanoyl]-glycine methyl ester [Derivative 30]” as the compound, how does the pIC50 (enkephalinase) read?
A: 8.52

Q: And the “antagonism of the potentiating effect by Naloxone” value ([1]; intraventricular)?
A: antagonised by Naloxone

Q: And the “potentiation of the effect of a subactive dosage (0.3γ) of D Ala2 Met Enkephalin” value ([1]; intraventricular)?
A: significantly potentiated

Q: And the “% increase in the licking time with respect to animals treated with D Ala2 Met enkephalin” value (“% increase in the licking time” below) [1, 6]?
A: 320%

Q: And the “(Met^5) liberated enkephalin” value ([2]; added inhibitor 10^-7 M)?
A: 600 ± 30 pmol/g/min

Q: O=CN(O)CC(Cc1ccccc1)NC(=O)CC(=O)NCc1ccccc1 (stereo not drawn) [Derivative 71] was tested. Which pIC50 (enkephalinase) did it give?
A: 6.70

Q: What does the source list for “N-(2-bensyloxyamino 3-phenyl propanoyl)-glycine isoamylamide [Derivative 22]”?
A: pIC50 (enkephalinase): 7.00; protection from phenylbenzoquinone-induced pain ([3]; 18 mg/kg i.v.): protect the treated animals from phenylbenzoquinone-induced pain; antagonism of the protective effect by Naloxone ([3]; in words): antagonized by Naloxone; potentiation of DAla2 Met Enkephalin [4, 7]: potentiate very significantly; increase in the licking time with respect to animals treated with DAla2 Met Enkephalin (0.3γ intraventricular) [1]: 100%; antalgic effect in the hot plate test [5]: have an antalgic effect; ED50 [5]: 18 mg/kg

Q: How did the “weight increase rate and signs of toxicity” value (mice; 50 mg/kg i.p. three times a day (150 mg/kg/day)) turn out when O=CN(O)CC(Cc1ccccc1)C(=O)NCC(=O)NCc1ccc(F)cc1 (stereo not drawn) [Derivative 63, N-(N-hydroxy 3-formamido 2-benzylpropanoyl)-glycine p-fluoro benzylamide] was run?
A: did not exhibit any change in the weight increase rate or any sign of toxicity

Q: What about the “weight of the organs and anatomic-pathologic examination” value (mice; 50 mg/kg i.p. three times a day, versus solvent controls) of the same compound?
A: no difference

Q: How did the pIC50 (enkephalinase) turn out when COC(=O)CC(=O)NC(Cc1ccccc1)NP(=O)(O)O (stereo not drawn) [Derivative 4, N-phosphoryl, N'-(2-methoxycarbonylacetyl) 1,1-diamino 2-phenyl ethane] was run?
A: 7.00

Q: How did the pIC50 (enkephalinase) turn out when COC(=O)CNC(=O)[C@H](Cc1ccccc1)NP(=O)(O)O [Derivative 2, N-phosphoryl L-phenylalanine-glycine methyl ester] was run?
A: 7.15

Q: And the “protection from phenylbenzoquinone-induced pain” value ([3]; 15 mg/kg i.v.)?
A: protect the treated animals from phenylbenzoquinone-induced pain

Q: And the “antagonism of the protective effect by Naloxone” value ([3]; in words)?
A: antagonized by Naloxone

Q: And the “potentiation of DAla2 Met Enkephalin” value [4, 7]?
A: potentiate very significantly

Q: What about the “increase in the licking time with respect to animals treated with DAla2 Met Enkephalin (0.3γ intraventricular)” value [1] of the same compound?
A: 100%

Q: And the “antalgic effect in the hot plate test” value [5]?
A: have an antalgic effect

Q: And the ED50 ([5]; Mus musculus, iv, read-out: ED50)?
A: 30 mg/kg

Q: How did the pIC50 (enkephalinase) turn out when “N-(N-benzyloxy 3-formamido 2-benzyl propnaoyl)-glycine methyl ester [Derivative 39]” was run?
A: 8.52

Q: What about the “% increase in the licking time” value [1, 6] of the same compound?
A: 300%

Q: And the ED50 [5]?
A: 25 mg/kg

Q: And the “(Met^5) liberated enkephalin” value ([2]; added inhibitor 10^-7 M)?
A: 630 ± 50 pmol/g/min

Q: What does the source list for “N-[2-(N-hydroxy β-trifluoroethyl carboxamido)3-phenyl propanoyl]-glycine [Derivative 53]”?
A: pIC50 (enkephalinase): 7.30; protection from phenylbenzoquinone-induced pain ([3]; 1 mg/kg i.v.): protect the treated animals from phenylbenzoquinone-induced pain; antagonism of the protective effect by Naloxone ([3]; in words): antagonized by Naloxone; duration (in seconds) of the immobile periods with respect to the controls (immobile periods of mice): significantly reduces; potentiation of DAla2 Met Enkephalin ([4]; 5 mg/kg): also observed; increase in the licking time with respect to animals treated with DAla2 Met Enkephalin (0.3γ intraventricular) [1]: 100%; antalgic effect in the hot plate test [5]: have an antalgic effect; ED50 [5]: 3 mg/kg; reduction in the blood pressure (blood pressure): reduction in the blood pressure

Q: With “N-[2-(N-hydroxy carbamoyl 3-phenyl propanoyl]-glycine [Derivative 32]” as the compound, how does the pIC50 (enkephalinase) read?
A: 8.30

Q: With “N-phorphoryl L-alanine-thioproline trifluoroethyl ester [Derivative 21]” as the compound, how does the pIC50 (enkephalinase) read?
A: 8.10

Q: What about the “antagonism of the potentiating effect by Naloxone” value ([1]; intraventricular) of the same compound?
A: antagonised by Naloxone

Q: And the “potentiation of the effect of a subactive dosage (0.3γ) of D Ala2 Met Enkephalin” value ([1]; intraventricular)?
A: significantly potentiated

Q: And the “% increase in the licking time” value ([1]; 30 γ/mouse ivt + D Ala2 Met Enkephalin 0.3 γ/mouse + Naloxone 10 mg/kg s.c.)?
A: 18%

Q: What about the “% increase in the licking time” value [1, 6] of the same compound?
A: 350%

Q: What about the “(Met^5) liberated enkephalin” value ([2]; added inhibitor 10^-6 M) of the same compound?
A: 550 ± 40 pmol/g/min

Q: O=CN(O)CC(Cc1ccccc1)NC(=O)CC(=O)O (stereo not drawn) [Derivative 69] was tested. Which pIC50 (enkephalinase) did it give?
A: 8.15

Q: With “D Ala2 Met Enkephalin [reference compound]” as the compound, how does the “activity of D Ala2 Met Enkephalin alone” value ([1]; 0.3 γ/mouse, intraventricular) read?
A: inactive in itself

Q: With O=C(O)CNC(=O)C(CS)Cc1ccccc1 (stereo not drawn) [Thiorphan, reference compound] as the compound, how does the “elimination of the abdominal stretchings of the mouse” value ([3]; in words, thiorphan even at a heavy dose) read?
A: never completely eliminates the abdominal stretchings

Q: What about the “(Met^5) liberated enkephalin” value ([2]; added inhibitor 10^-7 M) of the same compound?
A: 280 ± 30 pmol/g/min

Q: What about the “recovery of the pentapeptide” value ([2]; in words, presence of thiorphan) of the same compound?
A: approximately doubled
